Laboratory results published in ChEMBL document CHEMBL4477260, “Arylazolyl(azinyl)thioacetanilides. Part 20: Discovery of novel purinylthioacetanilides derivatives as potent HIV-1 NNRTIs via a structure-based bioisosterism approach” (Bioorg Med Chem, 2016).

How the values were obtained:
[1] = test system: Human immunodeficiency virus 1; test: Antiviral activity against human HIV-1 3B infected in human MT4 cells assessed as protection from virus-induced cytopathic effect measured 5 days post infection by MTT assay; format: functional, organism-based; conditions: Human immunodeficiency virus 1, 3B, MT4, 120 h
[2] = Cytotoxicity against mock-infected human MT4 cells assessed as reduction of cell viability after 5 days by MTT assay; format: cell-based
[3] = Selectivity index, ratio of CC50 for mock-infected human MT4 cells to EC50 for human HIV-1 3B infected in human MT4 cells; format: toxicity, cell-based; conditions: MT4 cells (mock-infected for CC50, HIV-1-infected for EC50)
[4] = Selectivity index, ratio of CC50 for mock-infected human MT4 cells to EC50 for human HIV-1 3B harboring RES056 mutant infected in human MT4 cells; format: toxicity, cell-based; conditions: MT4 cells (mock-infected for CC50, HIV-1-infected for EC50)
[5] = test system: Human immunodeficiency virus 1; test: Antiviral activity against human HIV-1 3B harboring RES056 mutant infected in human MT4 cells assessed as protection from virus-induced cytopathic effect measured 5 days post infection by MTT assay; format: functional, organism-based; conditions: Human immunodeficiency virus 1, 3B, MT4, 120 h
[6] = target: Human immunodeficiency virus type 1 reverse transcriptase (Human immunodeficiency virus 1, UniProt Q72547); test: Inhibition of HIV-1 reverse transcriptase assessed as reduction in biotin-duTP incorporation using biotin-labeled dUTP and hybrid poly(A)-oligo (dT)15 template primer after 2 hrs by ELISA
[7] = test system: Human immunodeficiency virus 1; test: Antiviral activity against human HIV-1 3B harboring reverse transcriptase L100I mutant infected in human MT4 cells assessed as protection from virus-induced cytopathic effect measured 5 days post infection by MTT assay; format: functional, organism-based; conditions: Human immunodeficiency virus 1, 3B, MT4, 120 h
[8] = test system: Human immunodeficiency virus 1; test: Antiviral activity against human HIV-1 3B harboring reverse transcriptase K103N mutant infected in human MT4 cells assessed as protection from virus-induced cytopathic effect measured 5 days post infection by MTT assay; format: functional, organism-based; conditions: Human immunodeficiency virus 1, 3B, MT4, 120 h
[9] = test system: Human immunodeficiency virus 1; test: Antiviral activity against human HIV-1 3B harboring reverse transcriptase Y181C mutant infected in human MT4 cells assessed as protection from virus-induced cytopathic effect measured 5 days post infection by MTT assay; format: functional, organism-based; conditions: Human immunodeficiency virus 1, 3B, MT4, 120 h
[10] = test system: Human immunodeficiency virus 1; test: Antiviral activity against human HIV-1 3B harboring reverse transcriptase Y188L mutant infected in human MT4 cells assessed as protection from virus-induced cytopathic effect measured 5 days post infection by MTT assay; format: functional, organism-based; conditions: Human immunodeficiency virus 1, 3B, MT4, 120 h
[11] = test system: Human immunodeficiency virus 1; test: Antiviral activity against human HIV-1 3B harboring reverse transcriptase E138K mutant infected in human MT4 cells assessed as protection from virus-induced cytopathic effect measured 5 days post infection by MTT assay; format: functional, organism-based; conditions: Human immunodeficiency virus 1, 3B, MT4, 120 h
[12] = test system: Human immunodeficiency virus 1; test: Antiviral activity against human HIV-1 3B harboring reverse transcriptase F227L/V106A double mutant infected in human MT4 cells assessed as protection from virus-induced cytopathic effect measured 5 days post infection by MTT assay; format: functional, organism-based; conditions: Human immunodeficiency virus 1, 3B, MT4, 120 h
[13] = Selectivity index, ratio of CC50 for mock-infected human MT4 cells to EC50 for human HIV-1 3B harboring L100I mutant infected in human MT4 cells; format: toxicity, cell-based; conditions: MT4 cells (mock-infected for CC50, HIV-1-infected for EC50)
[14] = Selectivity index, ratio of CC50 for mock-infected human MT4 cells to EC50 for human HIV-1 3B harboring K103N mutant infected in human MT4 cells; format: toxicity, cell-based; conditions: MT4 cells (mock-infected for CC50, HIV-1-infected for EC50)
[15] = Selectivity index, ratio of CC50 for mock-infected human MT4 cells to EC50 for human HIV-1 3B harboring Y181C mutant infected in human MT4 cells; format: toxicity, cell-based; conditions: MT4 cells (mock-infected for CC50, HIV-1-infected for EC50)
[16] = Selectivity index, ratio of CC50 for mock-infected human MT4 cells to EC50 for human HIV-1 3B harboring Y188L mutant infected in human MT4 cells; format: toxicity, cell-based; conditions: MT4 cells (mock-infected for CC50, HIV-1-infected for EC50)
[17] = Selectivity index, ratio of CC50 for mock-infected human MT4 cells to EC50 for human HIV-1 3B harboring E138K mutant infected in human MT4 cells; format: toxicity, cell-based; conditions: MT4 cells (mock-infected for CC50, HIV-1-infected for EC50)
[18] = Selectivity index, ratio of CC50 for mock-infected human MT4 cells to EC50 for human HIV-1 3B harboring F227L/V106A double mutant infected in human MT4 cells; format: toxicity, cell-based; conditions: MT4 cells (mock-infected for CC50, HIV-1-infected for EC50)

Row | SMILES | EC50 [1] | CC50 at 120 h [2] | selectivity ratio [3] | selectivity ratio [4] | EC50 [5] | further results
1 | CCOC(=O)c1ccc(NC(=O)CSc2nc3cnc(Cl)nc3n2-c2ccc(C3CC3)c3ccccc23)c(Br)c1 | > 150 µM | 150 µM | < 1 | – | – | –
2 | O=C(CSc1nc2cnc(Cl)nc2n1-c1ccc(C2CC2)c2ccccc12)Nc1ccc(C(F)(F)F)cc1 | > 16.2 µM | 16.2 µM | < 1 | < 1 | – | –
3 | CC(Sc1nc2cnc(Cl)nc2n1-c1ccc(C2CC2)c2ccccc12)C(=O)Nc1ccc(S(N)(=O)=O)cc1Br (stereo not drawn) | 2.75 µM | 15.9 µM | 6 | 1 | > 15.9 µM | –
4 | COC(=O)c1ccc(NC(=O)CSc2nc3cnc(Cl)nc3n2-c2cccc3ccccc23)c(Br)c1 | 1.66 µM | 156 µM | 94 | < 1 | > 156 µM | –
5 | CC(Sc1nc2cnc(Cl)nc2n1-c1cccc2ccccc12)C(=O)Nc1ccc(C(N)=O)cc1Cl (stereo not drawn) | 2.73 µM | 23.6 µM | 9 | < 1 | > 23.6 µM | –
6 | CCOC(=O)c1ccc(NC(=O)CSc2nc3cnc(Cl)nc3n2-c2cccc3ccccc23)c(Br)c1 | 3.43 µM | 109 µM | 32 | < 1 | > 109 µM | –
7 | NC(=O)c1ccc(NC(=O)CSc2nc3cnc(Cl)nc3n2-c2cccc3ccccc23)c(Br)c1 | 1.8 µM | 21.6 µM | 12 | < 1 | > 21.6 µM | –
8 | NC(=O)c1ccc(NC(=O)CSc2nc3cnc(Cl)nc3n2-c2ccc(C3CC3)c3ccccc23)c(Br)c1 | > 11.2 µM | 11.2 µM | < 1 | – | – | –
9 | CC(Sc1nc2cnc(Cl)nc2n1-c1cccc2ccccc12)C(=O)Nc1ccc(S(N)(=O)=O)cc1Br (stereo not drawn) | 0.78 µM | 19 µM | 24 | < 1 | > 19 µM | IC50 [6]: 6.42 µM
10 | CC(Sc1nc2cnc(Cl)nc2n1-c1cccc2ccccc12)C(=O)Nc1ccc(C(N)=O)cc1Br (stereo not drawn) | 1.86 µM | 21.8 µM | 12 | < 1 | > 21.8 µM | –
11 | O=C(CSc1nc2cnc(Cl)nc2n1-c1cccc2ccccc12)Nc1ccc(C(F)(F)F)cc1 | > 14.3 µM | 14.2 µM | < 1 | – | – | –
12 | NC(=O)c1ccc(NC(=O)CSc2nc3cnc(Cl)nc3n2-c2cccc3ccccc23)c(Cl)c1 | 4.56 µM | 22.7 µM | 5 | < 1 | > 22.7 µM | –
13 | CC(Sc1nc2cnc(Cl)nc2n1-c1ccc(C2CC2)c2ccccc12)C(=O)Nc1ccc(S(N)(=O)=O)cc1Cl (stereo not drawn) | 4.04 µM | 17.6 µM | 4 | ≤ 3 | ≥ 5.74 µM | –
14 | NC(=O)c1ccc(NC(=O)CSc2nc3cnc(Cl)nc3n2-c2ccc(C3CC3)c3ccccc23)c(Cl)c1 | > 6.39 µM | 6.39 µM | < 1 | – | – | –
15 | CC(Sc1nc2cnc(Cl)nc2n1-c1cccc2ccccc12)C(=O)Nc1ccc(S(N)(=O)=O)cc1Cl (stereo not drawn) | 1.07 µM | 21.5 µM | 20 | < 1 | > 21.5 µM | –
16 | CC(Sc1nc2cnc(Cl)nc2n1-c1ccc(C2CC2)c2ccccc12)C(=O)Nc1ccc(C(N)=O)cc1Br (stereo not drawn) | 7.22 µM | 55.9 µM | 8 | 10 | 22.2 µM | EC50 [7]: 5.64 µM; EC50 [8]: ≥ 48.1 µM; EC50 [9]: > 55.8 µM; EC50 [10]: > 55.8 µM; EC50 [11]: ≥ 65.1 µM; EC50 [12]: > 55.8 µM; selectivity ratio [13]: 8; selectivity ratio [14]: ≤ 1; selectivity ratio [15]: < 1; selectivity ratio [16]: < 1; selectivity ratio [17]: ≤ 1; selectivity ratio [18]: < 1
17 | CC(Sc1nc2cnc(Cl)nc2n1-c1ccc(C2CC2)c2ccccc12)C(=O)Nc1ccc(C(N)=O)cc1Cl (stereo not drawn) | > 25.1 µM | 25.1 µM | < 1 | – | – | –
18 | NC(=O)c1ccc(NC(=O)CSc2nc3cnc(Cl)nc3n2-c2cccc3ccccc23)cc1 | ≥ 28.8 µM | 156 µM | ≤ 5 | < 1 | > 156 µM | –
19 | NS(=O)(=O)c1ccc(NC(=O)CSc2nc3cnc(Cl)nc3n2-c2ccc(C3CC3)c3ccccc23)cc1 | 18.7 µM | 113 µM | 6 | < 1 | > 113 µM | –
20 | NS(=O)(=O)c1ccc(NC(=O)CSc2nc3cnc(Cl)nc3n2-c2cccc3ccccc23)cc1 | 4.46 µM | 104 µM | 23 | < 1 | > 104 µM | –
21 | COC(=O)c1ccc(NC(=O)CSc2nc3cnc(Cl)nc3n2-c2ccc(C3CC3)c3ccccc23)c(Br)c1 | > 153 µM | 153 µM | < 1 | – | – | –
22 | CC(C)Nc1cccnc1N1CCN(C(=O)c2cc3cc(NS(C)(=O)=O)ccc3[nH]2)CC1 [DELAVIRDINE] | 0.0383 µM | 36.8 µM | – | – | – | selectivity ratio [13]: 14; selectivity ratio [14]: 12; selectivity ratio [15]: 15; selectivity ratio [16]: 44; selectivity ratio [17]: 715; selectivity ratio [18]: 16
23 | O=C1Nc2ccc(Cl)cc2[C@@](C#CC2CC2)(C(F)(F)F)O1 [EFAVIRENZ] | – | ≥ 6.34 µM | – | – | – | –
24 | Cc1cc(C#N)cc(C)c1Oc1nc(Nc2ccc(C#N)cc2)nc(N)c1Br [ETRAVIRINE] | 0.00335 µM | 2.46 µM | – | – | – | EC50 [9]: 0.015 µM
25 | Cc1ccnc2c1NC(=O)c1cccnc1N2C1CC1 [NEVIRAPINE] | – | ≥ 15 µM | – | – | – | –
